SMILES strings stand for the structures. Where two headings read alike, the source gives them in different places.

In assay [1] the test system is CsgA gene expression (csgBAC promoter-GFP reporter) in E. coli UTI89. In words: In vitro live cell fluorescent reporter assay of CsgA transcription (Reporter Assay). Type of assay: cell-based. Particulars: Escherichia coli. The gist of the method:
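Compounds at 0.14–100 μM (1% DMSO final) incubated 20 h at 27 °C in YESCA broth with UTI89 carrying a single-copy GFP reporter under the csgBAC intergenic promoter region, inoculum OD600 0.003. Fluorescence normalized to vehicle wells gave IC50 and 50%-of-vehicle concentration; OD600 reduction >10% flagged growth impact.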

The target in assay [2] is T1, human α-synuclein (Homo sapiens, UniProt P37840).
T1 construct: the full-length gene for untagged human α-synuclein was inserted; made in house; host or cells: E. coli BL21(DE3), plasmid derived from pT7 or pET11a
The assay can be described thus: Cell-free Thioflavin T assay of α-synuclein aggregation (αSyn ThT Assay). Type of assay: biochemical. Particulars: αSyn 50 μM, compounds 100 μM. The gist of the method:
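Inhibition is reported as 100% minus background-corrected ThT signal relative to vehicle wells, taken at 36, 47, 48 or 72 h or the last read. Reactions held 50 μM recombinant α-synuclein, 20-100 μM compound, 20-40 μM ThT and 1% DMSO. Incubation was at 37° C., shaken, with a glass bead.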

The mark [3] stands for this setting: read-out: Reporter Assay Abs IC50 (μM), median Abs IC50 in the CsgA reporter assay, N/A = maximum expression reduction is <50% of control.
Where [4] appears, read: read-out: Reporter Assay Abs IC50, activity range, class symbol.
Setting [5] is: class symbol, read-out: αSyn ThT Assay % inhibition, activity range.
The mark [6] stands for this setting: mean percent inhibition relative to DMSO control, read-out: αSyn ThT Assay % inhibition.

As for `N#Cc1ccc(CN2CC(C(=O)O)n3c2c(-c2cccc(C(F)(F)F)c2)c(Cc2cccc4ccccc24)c(Cl)c3=O)cc1` (stereo not shown) [Compound 171, 6-chloro-1-(4-cyanobenzyl)-7-(naphthalen-1-ylmethyl)-5-oxo-8-(3-(trifluoromethyl)phenyl)-1,2,3,5-tetrahydroimidazo[1,2-a]pyridine-3-carboxylic acid], the IC50 in assay [1] (setting [3]) was 1.1 µM; in assay [1] (setting [4]), less than 1.3 µM. For the same compound, the figures for the inhibition at 100 µM in assay [2] (setting [5]) and in assay [2] (setting [6]) were 31 to 60% and 32%, respectively.
With `COc1ccccc1CN1CC(C(=O)O)n2c1c(-c1cccc(C(F)(F)F)c1)c(Cc1cccc3ccccc13)c(Cl)c2=O` (stereo not shown) [Compound 195, 6-chloro-1-(2-methoxybenzyl)-7-(naphthalen-1-ylmethyl)-5-oxo-8-(3-(trifluoromethyl)phenyl)-1,2,3,5-tetrahydroimidazo[1,2-a]pyridine-3-carboxylic acid], the IC50 in assay [1] (setting [3]) is 1.8 µM; in assay [1] (setting [4]), 1.3 to 4.5 µM. Besides, the inhibition at 100 µM was 31 to 60% in assay [2] (setting [5]) and 45% in assay [2] (setting [6]).
Taken in the same sequence, the figures for `O=C(O)C1CN(Cc2ccccc2)c2c(-c3cccc(C(F)(F)F)c3)c(Cc3ccc(Cl)c4ccccc34)cc(=O)n21` (stereo not shown) [Compound 232, 1-benzyl-7-((4-chloronaphthalen-1-yl)methyl)-5-oxo-8-(3-(trifluoromethyl)phenyl)-1,2,3,5-tetrahydroimidazo[1,2-a] pyridine-3-carboxylic acid] were 0.7 µM, less than 1.3 µM, 11 to 30% and 23%.
Taken in the same sequence, the figures for `COc1cc(Cc2cc(=O)n3c(c2-c2cccc(C(F)(F)F)c2)N(Cc2ccccc2)CC3C(=O)O)c2ccccc2c1` (stereo not shown) [Compound 233, 1-benzyl-7-((3-methoxynaphthalen-1-yl)methyl)-5-oxo-8-(3-(trifluoromethyl)phenyl)-1,2,3,5-tetrahydroimidazo[1,2-a]pyridine-3-carboxylic acid] were 0.6 µM, less than 1.3 µM, 31 to 60% and 50%.
With `COc1cc(Cc2c(-c3cccc(C(F)(F)F)c3)c3n(c(=O)c2Cl)C(C(=O)O)CN3Cc2ccccc2)c2ccccc2c1` (stereo not shown) [Compound 234, 1-benzyl-6-chloro-7-((3-methoxynaphthalen-1-yl)methyl)-5-oxo-8-(3-(trifluoromethyl)phenyl)-1,2,3,5-tetrahydroimidazo[1,2-a]pyridine-3-carboxylic acid], the IC50 in assay [1] (setting [3]) is 0.4 µM; in assay [1] (setting [4]), less than 1.3 µM. Moreover, the inhibition at 100 µM was greater than 60% in assay [2] (setting [5]) and 70% in assay [2] (setting [6]).
Taken in the same sequence, the figures for `O=C(O)C1CN(CCc2cccc3ccccc23)c2c(-c3cccc(C(F)(F)F)c3)c(Cc3cccc4ccccc34)c(Cl)c(=O)n21` (stereo not shown) [Compound 238, 6-chloro-1-(2-(naphthalen-1-yl)ethyl)-7-(naphthalen-1-ylmethyl)-5-oxo-8-(3-(trifluoromethyl)phenyl)-1,2,3,5-tetrahydroimidazo[1,2-a]pyridine-3-carboxylic acid] were 0.7 µM, less than 1.3 µM, greater than 60% and 94%.
For `CC(C)(C)c1ccc(CCN2CC(C(=O)O)n3c2c(-c2cccc(C(F)(F)F)c2)c(Cc2cccc4ccccc24)c(Cl)c3=O)cc1` (stereo not shown) [Compound 239, 1-(4-(tert-butyl)phenethyl)-6-chloro-7-(naphthalen-1-ylmethyl)-5-oxo-8-(3-(trifluoromethyl)phenyl)-1,2,3,5-tetrahydroimidazo[1,2-a]pyridine-3-carboxylic acid], in that order: 0.6 µM, less than 1.3 µM, 31 to 60% and 58%.

The values above are taken from US20230131899A1, “INHIBITORS OF MICROBIALLY INDUCED AMYLOID” (Axial Therapeutics, Inc., priority 2020, published 2023).
